# From patent US20210122746A1, “FEBRIFUGINE DERIVATIVES” (BRISTOL-MYERS SQUIBB COMPANY, priority 2017, published 2021)
# Where a name gives a salt, the structure may show the parent alone.
# Key:
# Rat hepatocytes = assay: GSH trapping assay; type: in vitro ADME; settings: 30 μM, 24 hr incubation, LC-MS detection of GSH adducts
# Experimental: Rat hepatocytes were isolated from male Sprague-Dawley rats (Vivo Biotech Ltd, HYD, India), weighing 230 to 280 g by the two step collagenase perfusion method (seglen, 1976; Berry M N and Friend D S.1969). Rat hepatocytes were cultured in Dulbecco's Modified Eagle's Medium (DMEM, Gibco®, USA) supplemented with 10^−6M dexamethasone (Gibco®), 5% fetal bovine serum (Gibco®) and cocktail-A mix (CM3000, Gibco®) containing HEPES buffer (PH 7.4), GlutaMAX™, human recombinant insulin, penicillin and streptomycin. Initial cell viability assessed by Trypanblue stain 0.4% (Sigma, UK) and viability more than 80% were considered for culturing. Hepatocytes were seeded in 96 well type-I collagen coated plates (Gibco®) at 4×10^4 cells/well in 100 μL of the culture medium and incubated at 37° C. in 5% CO2 and 95% relative humidity (RH) for 4 hr of cell attachment.
# After 4hr incubation, rat hepatocytes were washed twice with pre-warmed (37° C.) DMEM incubation medium supplemented with 10^−7M dexamethasone and cell maintenance cocktail-B (CM4000, Gibco®) solution to remove unattached cells. Post washing hepatocytes were treated with test and reference compounds in incubation medium at single concentration (30 μM) in duplicate and incubate further for 24 hr at 37° C. with 5% CO2 and 95% RH. The final concentration of DMSO in medium was 0.5%.
# Post 24 hr incubation, hepatocyte samples were quenched with equal volumes of acetonitrile containing 0.1% formic acid followed by vortex mix, sonicate and centrifuge at 12000 rpm at room temperature for 5 min. Supernatant samples were analyzed for GSH adducts on a C18 reverse-phase column (Xbridge™ Shield, C18, 4.6×150 mm, 3.5 μm) with solvent A (10 mM ammonium formate and 0.1% formic acid/water) and solvent B (0.1% formic acid/acetonitrile).
# The column was eluted with 5% B for 5 min and then with a linear gradient to 20% B over 10 min and it was maintained upto 15 min, then it was increased linearly to 40% B upto 27 min and then increase to 90% B upto 29 min, and then equilibrate back the column to 5% B upto 33 min at a flow rate of 0.6 ml/min. The column effluent was directed into the ESI source of a LTQ Velos Orbitrap mass spectrometer (Thermo Fisher Scientific, San Jose, Calif.). The ESI conditions were as follows: sheath gas flow rate, 40 arbitrary units; auxiliary gas, 30 arbitrary units; spray voltage, 4.5 kV; capillary temperature, 230° C.; capillary voltage, 30 V; and tube lens offset, 25 V. Data were acquired in positive ion mode using Xcalibur software (Thermo Fisher Scientific) with one full scan followed by two data-dependent scans of the most intense and the second most intense ions. During the data interpretation the characteristic fragments of neutral loss of glycine (75.0320 Da), pyroglutamic acid (129.0426 Da) and loss of neutral moiety GSH (307.0838 Da) and/or a specific fragment of (GSH+H)^+ (m/z 308.0911) were monitored. Finally, the fragments ions with m/z e.g. 179.0485, 177.0328 and 162.0219 Da, which were derived from the glutathione moiety were used to report GSH positive results.
# [1] = molecular target: T1, human ProRS (prolyl tRNA synthetase moiety of glutamyl prolyl tRNA synthetase) (Homo sapiens, UniProt P07814); assay: Assay for inhibitors of prolyl tRNA synthetase activity (ProRS assay, labeled proline incorporation); type: biochemical; settings: ProRS 20 nM, compounds 10 μM to 0.5 nM, 10 min at 37° C.; read-out: EPR IC50
# T1 construct: The prolyl tRNA synthetase moiety (ProRS) in the cDNA of glutamyl prolyl tRNA synthetase was subcloned; 6xHis (N, cleaved yes); made in house; host or cells: E. coli BL21 (DE3)
# T1 sequence (P07814 1007-1512 limits assumed): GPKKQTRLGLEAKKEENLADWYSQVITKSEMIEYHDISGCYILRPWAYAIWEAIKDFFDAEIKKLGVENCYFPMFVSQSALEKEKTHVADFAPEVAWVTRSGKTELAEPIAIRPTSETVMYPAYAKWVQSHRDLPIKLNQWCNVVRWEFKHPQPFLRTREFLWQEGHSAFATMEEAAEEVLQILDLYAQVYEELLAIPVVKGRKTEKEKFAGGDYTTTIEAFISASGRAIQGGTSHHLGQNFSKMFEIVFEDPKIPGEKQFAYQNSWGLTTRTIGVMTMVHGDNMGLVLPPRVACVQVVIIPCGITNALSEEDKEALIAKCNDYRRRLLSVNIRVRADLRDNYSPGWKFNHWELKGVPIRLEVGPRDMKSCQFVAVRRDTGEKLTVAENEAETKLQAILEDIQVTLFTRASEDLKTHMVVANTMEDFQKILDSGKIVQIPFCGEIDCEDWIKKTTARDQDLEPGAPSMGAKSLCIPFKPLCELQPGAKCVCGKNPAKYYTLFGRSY
# Source text: In order to establish the activities of the compounds highlighted above, we determined extent of inhibition of prolyl tRNA synthetase activity in dose response curves to obtain IC50 values.
# The prolyl tRNA synthetase moiety (ProRS) in the cDNA of glutamyl prolyl tRNA synthetase was subcloned, tagged with a single biotin, purified and used in the assay. Briefly, human ProRS with a 6× N-terminal His tag in pET28N with TVMV BioP was transformed in E. coli BL21 (DE3) cells, selected, overexpressed and purified using a Ni Seph 6 FF XK 16/20 column in the first stage. Ni-NTA eluates were pooled and treated with TVMV protease, and biotinylated using d-Biotin, MgCl2, ATP and the BirA enzyme. This was rerun through a Ni column as before. The eluates were further enriched and purified using membrane ultrafiltration and a SuperDex 200 XK 16/60 column, and peak fractions were confirmed by SDS-PAGE prior to protein amount determination, aliquoting and storage at −80° C.
# ProRS assay was performed in 96 well plates in a final reaction volume of 20 μl, using staggered additions of Tris-Cl (pH 7.5, 60 mM), dithiothreitol (2 mM), ATP (5 mM, pH 7.0), MgCl2 6 mM), ProRS (20 nM, with pre-determined active fraction range) and bovine tRNA (20 μg). Controls and compounds, at various concentrations (10 μM to 0.5 nM), were incubated on ice with enzyme mix for 15 min followed by addition of proline (non-labeled and labeled, 3.96 and 1.04 μM (1 μCi) respectively) to initiate the reaction. Reaction was carried out for 10 min at 37° C. and terminated by addition of TCA (10%, 100 μl). Reaction mix was collected on a Whatman GF/B filter using a vacuum filtration manifold. This filter was washed 3 times with 5% TCA followed by 2 washes with ethanol, air dried, and read using a liquid scintillation counter (TopCount NXT) using MicroScint O. IC50 values were calculated and analyzed using ToolSet (4-parameter plot) and depicted herein.
GSH adduct formation (Rat hepatocytes),IC50 [1] [nM],SMILES
Negative,28,"O=c1c2nc(-c3cccc(C(F)(F)F)c3)ccc2ncn1C[C@@H](O)C[C@H]1NCCC[C@@H]1O [Example 23, 3-{(S)-2-Hydroxy-3-[(2R,3S)-3-hydroxypiperidin-2-yl]propyl}-6-[3-(trifluoromethyl)phenyl]pyrido[3,2-d]pyrimidin-4(3H)-one dihydrochloride]"
Negative,28,"Cc1cc(C)c2ncn(CC(=O)C[C@H]3NCCC[C@@H]3O)c(=O)c2n1 [Example 1, 3-{3-[(2R,3S)-3-Hydroxypiperidin-2-yl]-2-oxopropyl}-6,8-dimethylpyrido[3,2-d]pyrimidin-4(3H)-one dihydrochloride]"
Negative,416,"Cc1cc(C(F)(F)F)nc2c(=O)n(C[C@@H](O)C[C@H]3NCCC[C@@H]3O)cnc12 [Example 31, 3-{(S)-2-hydroxy-3-[(2R,3S)-3-hydroxypiperidin-2-yl]propyl}-8-methyl-6-(trifluoromethyl)pyrido[3,2-d]pyrimidin-4(3H)-one bis(2,2,2-trifluoroacetic acid)]"
Negative,773,"Cc1cc(C)c2ncn(CC(=O)C[C@@H]3CCCCN3)c(=O)c2n1.Cl.Cl [Example 10, (S)-6,8-dimethyl-3-(2-oxo-3-(piperidin-2-yl)propyl)pyrido[3,2-d]pyrimidin-4(3H)-one dihydrochloride]"
Negative,15,"O=C(C[C@H]1NCCC[C@@H]1O)Cn1cnc2cccnc2c1=O [Example 2, 3-{3-[(2R,3S)-3-Hydroxypiperidin-2-yl]-2-oxopropyl}pyrido[3,2-d]pyrimidin-4(3H)-one dihydrochloride]"
Negative,301,"Cc1cc(Cl)cn2c(=O)c(NC(=O)C[C@H]3NCCC[C@@H]3O)cnc12.Cl [Example 39, N-(7-Chloro-9-methyl-4-oxo-4H-pyrido [1,2-a]pyrimidin-3-yl)-2-[(2R, 3S)-3-hydroxypiperidin-2-yl]acetamide hydrochloride]"
–,2730,"Cc1cc(-c2cccc(F)c2)cn2c(=O)c(NC(=O)C[C@H]3NCCC[C@@H]3O)cnc12 [Example 40, N-(7-(3-fluorophenyl)-9-methyl-4-oxo-4H-pyrido[1,2-a]pyrimidin-3-yl)-2-((2R,3S)-3-hydroxypiperidin-2-yl)acetamide 2,2,2-trifluoroacetic acid]"
–,25,"O=c1c2nc(-c3ccc(F)c(F)c3)ccc2ncn1C[C@@H](O)C[C@H]1NCCC[C@@H]1O [Example 25, 6-(3,4-Difluorophenyl)-3-{(S)-2-hydroxy-3-[(2R,3S)-3-hydroxypiperidin-2-yl]propyl}pyrido[3,2-d]pyrimidin-4(3H)-one dihydrochloride]"
–,290,"Cc1cc(-c2cccnc2)nc2c(=O)n(C[C@@H](O)C[C@H]3NCCC[C@@H]3O)cnc12 [Example 34, 3-{(S)-2-hydroxy-3-[(2R,3S)-3-hydroxypiperidin-2-yl]propyl}-8-methyl-6-(pyridin-3-yl)pyrido[3,2-d]pyrimidin-4(3H)-one trihydrochloride]"
–,79,"Cc1cc(-c2cccc(F)c2)nc2c(=O)n(C[C@@H](O)C[C@H]3NCCC[C@@H]3O)cnc12 [Example 32, 6-{(3-fluorophenyl)-3-[(S)-2-hydroxy-3-(2R,3S)-3-hydroxypiperidin-2-yl-propyl)-8-methylpyrido[3,2-d]}pyrimidin-4(3H)-one dihydrochloride]"
–,103,"O=c1c2nc(-c3cccnc3)ccc2ncn1C[C@@H](O)C[C@H]1NCCC[C@@H]1O [Example 29, 3-{(S)-2-hydroxy-3-[(2R,3S)-3-hydroxypiperidin-2-yl]propyl}-6-(pyridin-3-yl)pyrido[3,2-d]pyrimidin-4(3H)-one 2,2,2-trifluoroacetate]"
–,5,"O=C(C[C@H]1NCCC[C@@H]1O)Cn1cnc2ccc(-c3cccc(F)c3)nc2c1=O [Example 7, 6-(3-Fluorophenyl)-3-{3-[(2R,3S)-3-hydroxypiperidin-2-yl]-2-oxopropyl}pyrido[3,2-d]pyrimidin-4(3H)-one dihydrochloride]"
–,425,"Cc1cc(C2CC2)nc2c(=O)n(C[C@@H](O)C[C@H]3NCCC[C@@H]3O)cnc12 [Example 30, 6-cyclopropyl-3-{(S)-2-hydroxy-3-[(2R,3S)-3-hydroxypiperidin-2-yl]propyl}-8-methylpyrido[3,2-d]pyrimidin-4(3H)-one dihydrochloride]"
–,491,"Cc1cc(C)c2ncn(C[C@@H](O)C[C@H]3NCCC[C@@H]3O)c(=O)c2n1 [Example 21, 3-{(S)-2-hydroxy-3-[(2R,3S)-3-hydroxypiperidin-2-yl]propyl}-6,8-dimethylpyrido[3,2-d]pyrimidin-4(3H)-one dihydrochloride]"
–,20,"O=c1c2nc(-c3cccc(Cl)c3)ccc2ncn1C[C@@H](O)C[C@H]1NCCC[C@@H]1O [Example 22, 6-(3-Chlorophenyl)-3-{(S)-2-hydroxy-3-[(2R,3S)-3-hydroxypiperidin-2-yl]propyl}pyrido[3,2-d]pyrimidin-4(3H)-one dihydrochloride]"
–,12,"Cc1cc(-c2cccnc2)nc2c(=O)n(CC(=O)C[C@H]3NCCC[C@@H]3O)cnc12 [Example 17, 3-{3-[(2R,3S)-3-hydroxypiperidin-2-yl]-2-oxopropyl}-8-methyl-6-(pyridin-3-yl)pyrido[3,2-d]pyrimidin-4(3H)-one trihydrochloride]"
